The values below come from ChEMBL document CHEMBL1697731, “Cheminformatics analysis of assertions mined from literature that describe drug-induced liver injury in different species” (Chem Res Toxicol, 2010).

The subject of data set [1] is Hepatotoxicity. The data set is described as follows: Literature-mined compound from Fourches et al multi-species drug-induced liver injury (DILI) dataset, effect in rodents. The following applies: rodentia.
Data set [2] has as its system Hepatotoxicity. The data set is described as follows: Literature-mined compound from Fourches et al multi-species drug-induced liver injury (DILI) dataset, effect in non-rodents.
The test system of data set [3] is Hepatotoxicity. The data set is described as follows: Literature-mined compound from Fourches et al multi-species drug-induced liver injury (DILI) dataset, effect in humans. The following applies: human.

Consider `CC1(C)CCC2=C(O1)c1ccccc1C(=O)C2=O` [LAPACHONE], for which the Hepatotoxicity entry in the data set with Hepatotoxicity [1] is given as “no drug-induced liver injury reported”; with Hepatotoxicity [2], “no drug-induced liver injury reported”; with Hepatotoxicity [3], “drug-induced liver injury reported”.
As to `CCCC(C)C1(CC)C(=O)NC(=O)NC1=O` (centres undefined) [PENTOBARBITAL], the Hepatotoxicity result in the data set with Hepatotoxicity [1], in the data set with Hepatotoxicity [2] and in the data set on Hepatotoxicity [3] was “drug-induced liver injury reported” throughout.
For the molecule `O=c1[nH]cnc2c1ncn2[C@H]1CC[C@@H](CO)O1` [DIDANOSINE], the Hepatotoxicity entry in the data set on Hepatotoxicity [1] is reported as “drug-induced liver injury reported”; in the data set on Hepatotoxicity [2], “no drug-induced liver injury reported”; in the data set with Hepatotoxicity [3], “drug-induced liver injury reported”.
With `C[C@@H]1CN(c2c(F)c(N)c3c(=O)c(C(=O)O)cn(C4CC4)c3c2F)C[C@H](C)N1` [SPARFLOXACIN], the Hepatotoxicity entry is listed as “no drug-induced liver injury reported” in the data set with Hepatotoxicity [1], “no drug-induced liver injury reported” in the data set with Hepatotoxicity [2] and “drug-induced liver injury reported” in the data set on Hepatotoxicity [3].
Turning to `C1CNCCN1` [PIPERAZINE], the Hepatotoxicity entry with Hepatotoxicity [1] (Liver) was “drug-induced liver injury reported”; with Hepatotoxicity [2] (Liver), “no drug-induced liver injury reported”; in the data set with Hepatotoxicity [3] (Liver), “no drug-induced liver injury reported”.
For the molecule `CC(C(=O)O)c1ccc2c(c1)[nH]c1ccc(Cl)cc12` (centres undefined) [CARPROFEN], the figures for the Hepatotoxicity entry with Hepatotoxicity [1], in the data set on Hepatotoxicity [2] and in the data set on Hepatotoxicity [3] were “no drug-induced liver injury reported”, “drug-induced liver injury reported” and “no drug-induced liver injury reported”, respectively.
On to `CCCCN1CCCCC1C(=O)Nc1c(C)cccc1C` (centres undefined) [BUPIVACAINE], for which the Hepatotoxicity result with Hepatotoxicity [1] is given as “drug-induced liver injury reported”; in the data set with Hepatotoxicity [2], “no drug-induced liver injury reported”; with Hepatotoxicity [3], “no drug-induced liver injury reported”.
Take `CN1CC[C@]23c4c5ccc(O)c4O[C@H]2[C@@H](O)C=C[C@H]3[C@H]1C5` [MORPHINE]: the Hepatotoxicity result with Hepatotoxicity [1] (Liver) is on record as “drug-induced liver injury reported”; with Hepatotoxicity [2] (Liver), “no drug-induced liver injury reported”; in the data set with Hepatotoxicity [3] (Liver), “drug-induced liver injury reported”.
On to `CC(C)C[C@H](NC(=O)[C@H](Cc1ccccc1)NC(=O)c1cnccn1)B(O)O` [BORTEZOMIB], for which the Hepatotoxicity entry with Hepatotoxicity [1] (Liver) was “drug-induced liver injury reported”; in the data set on Hepatotoxicity [2] (Liver) it was “no drug-induced liver injury reported”; in the data set on Hepatotoxicity [3] (Liver) it was “drug-induced liver injury reported”.
As to `C=C1[C@H](CO)[C@@H](O)C[C@@H]1n1cnc2c(=O)[nH]c(N)nc21.O`, the Hepatotoxicity entry is listed as “no drug-induced liver injury reported” with Hepatotoxicity [1], “no drug-induced liver injury reported” in the data set on Hepatotoxicity [2] and “drug-induced liver injury reported” with Hepatotoxicity [3].
As for `NCC[C@H](O)C(=O)N[C@@H]1C[C@H](N)[C@@H](O[C@H]2O[C@H](CN)[C@@H](O)[C@H](O)[C@H]2O)[C@H](O)[C@H]1O[C@H]1O[C@H](CO)[C@@H](O)[C@H](N)[C@H]1O` [AMIKACIN], the Hepatotoxicity result with Hepatotoxicity [1] is listed as “no drug-induced liver injury reported”; with Hepatotoxicity [2], “drug-induced liver injury reported”; with Hepatotoxicity [3], “drug-induced liver injury reported”.
In the case of `COc1cc(C)c(/C=C/C(C)=C/C=C/C(C)=C/C(=O)O)c(C)c1C` [ACITRETIN], the Hepatotoxicity entry with Hepatotoxicity [1] is “drug-induced liver injury reported”; in the data set with Hepatotoxicity [2], “no drug-induced liver injury reported”; in the data set on Hepatotoxicity [3] it was “drug-induced liver injury reported”.
`CC1(C)S[C@@H]2[C@H](NC(=O)C(C(=O)[O-])c3ccccc3)C(=O)N2[C@H]1C(=O)[O-].[Na+].[Na+]` (some centres undefined) [CARBENICILLIN DISODIUM]: the figures for the Hepatotoxicity entry in the data set with Hepatotoxicity [1], with Hepatotoxicity [2] and with Hepatotoxicity [3] were “no drug-induced liver injury reported”, “no drug-induced liver injury reported” and “drug-induced liver injury reported”, respectively.
As to `Cc1ccnc2c1NC(=O)c1cccnc1N2C1CC1` [NEVIRAPINE], the Hepatotoxicity entry with Hepatotoxicity [1] is “no drug-induced liver injury reported”; in the data set with Hepatotoxicity [2], “no drug-induced liver injury reported”; in the data set on Hepatotoxicity [3], “drug-induced liver injury reported”.
Regarding `CCN1CC(CCN2CCOCC2)C(c2ccccc2)(c2ccccc2)C1=O.Cl` (centres undefined), the Hepatotoxicity result with Hepatotoxicity [1] is reported as “no drug-induced liver injury reported”; in the data set with Hepatotoxicity [2] it was “no drug-induced liver injury reported”; in the data set on Hepatotoxicity [3], “drug-induced liver injury reported”.
With `CC[C@H]1[C@@H]2C[C@H]3[C@@H]4N(C)c5ccccc5[C@]45C[C@@H]([C@@H]2[C@H]5O)N3[C@@H]1O` [AJMALINE], the Hepatotoxicity entry in the data set with Hepatotoxicity [1] is reported as “no drug-induced liver injury reported”; in the data set on Hepatotoxicity [2], “no drug-induced liver injury reported”; in the data set on Hepatotoxicity [3], “drug-induced liver injury reported”.
`Cc1cc2c(s1)Nc1ccccc1N=C2N1CCN(C)CC1` [OLANZAPINE]: the results for the Hepatotoxicity result with Hepatotoxicity [1], in the data set on Hepatotoxicity [2] and in the data set with Hepatotoxicity [3] were “no drug-induced liver injury reported”, “no drug-induced liver injury reported” and “drug-induced liver injury reported”, respectively.
As for `N[C@@H](Cc1ccc(O)c(O)c1)C(=O)O` [LEVODOPA], the Hepatotoxicity result was “drug-induced liver injury reported” in the data set with Hepatotoxicity [1], “no drug-induced liver injury reported” with Hepatotoxicity [2] and “drug-induced liver injury reported” in the data set with Hepatotoxicity [3].
Consider `Cc1c(N(C)CS(=O)(=O)[O-])c(=O)n(-c2ccccc2)n1C.[Na+]` [DIPYRONE SODIUM], for which the Hepatotoxicity result in the data set with Hepatotoxicity [1] is given as “drug-induced liver injury reported”; with Hepatotoxicity [2], “no drug-induced liver injury reported”; in the data set with Hepatotoxicity [3], “drug-induced liver injury reported”.
In the case of `CCN(CC)Cc1cc(Nc2ccnc3cc(Cl)ccc23)ccc1O.Cl`, the Hepatotoxicity result in the data set on Hepatotoxicity [1] (Liver) was “drug-induced liver injury reported”; in the data set on Hepatotoxicity [2] (Liver) it was “no drug-induced liver injury reported”; in the data set with Hepatotoxicity [3] (Liver) it was “drug-induced liver injury reported”.
Consider `CCc1oc2ccccc2c1C(=O)c1cc(Br)c(O)c(Br)c1` [BENZBROMARONE], for which the figures for the Hepatotoxicity result in the data set on Hepatotoxicity [1], with Hepatotoxicity [2] and with Hepatotoxicity [3] were “drug-induced liver injury reported”, “no drug-induced liver injury reported” and “drug-induced liver injury reported”, respectively.
Consider `C[C@@H]1[C@H](O)[C@@H](C)/C=C/C=C/C=C/C=C/C=C/C=C/C=C/[C@H](O[C@@H]2O[C@H](C)[C@@H](O)[C@H](N)[C@@H]2O)C[C@@H]2O[C@](O)(C[C@@H](O)C[C@@H](O)[C@H](O)CC[C@@H](O)C[C@@H](O)CC(=O)O[C@H]1C)C[C@H](O)[C@H]2C(=O)O` [AMPHOTERICIN B], for which the Hepatotoxicity result with Hepatotoxicity [1] was “drug-induced liver injury reported”; in the data set with Hepatotoxicity [2], “no drug-induced liver injury reported”; in the data set with Hepatotoxicity [3], “drug-induced liver injury reported”.
`C=CC(N)CCC(=O)O` (centres undefined) [VIGABATRIN]: the Hepatotoxicity result was “drug-induced liver injury reported” with Hepatotoxicity [1], “no drug-induced liver injury reported” in the data set on Hepatotoxicity [2] and “no drug-induced liver injury reported” in the data set with Hepatotoxicity [3].
